Results as given in patent US20240034991A1, “METHOD FOR EFFICIENTLY INDUCING REPROGRAMMING OF HUMAN CELL INTO NEURONAL CELL” (GUANGXI UNIVERSITY, priority 2022, published 2024).

System: Human skin fibroblasts (BJ)
Assay: Immunofluorescence detection of neuronal cell marker antigens in induced human skin fibroblasts (CiNCs)
Format: cell-based
Protocol: After 48 h of induction, the induction medium was replaced with a neuronal cell maturation medium to continue promoting further maturation of the CiNCs, and the neuronal cell maturation medium was replaced with a neuronal cell medium after 72 h for long-term culture.
Immunofluorescence detection of neuronal cell marker antigens was conducted on human skin fibroblasts and cells induced by neuronal cell induction (N2B27+10 μM Forskolin) for 48 h. The method included the following specific steps: human skin fibroblasts and F-48h cells in a culture plate were fixated with 4% paraformaldehyde (PFA) at room temperature for 30 min; the cells were washed with a blocking solution three times, 5 min in each time; the cells were permeabilized by 1% TritonX-100 for 15 min at room temperature; the cells were washed with the blocking solution three times again; non-specific sites were blocked with 5% donkey serum, and then blocked for 2 h at room temperature; the cells were washed three times with TBP (Tritonx-Bovine albumin-Phosphate Buffer Saline) for 5 min in each time; a primary antibody was added for incubation at 4° C. overnight; on a next day, the culture plate was placed at room temperature, rewarmed for 20 min, and then washed with TBP three times for 5 min in each time, a secondary antibody and a Hoechst mixture were added in the dark, and incubated at room temperature for 1 h; after washing three times with a TBP solution, fluorescence microscope observation and photographing experiment were conducted.

| SMILES | Expression of neuronal cell marker antigens TUJ1, MAP2 and NeuN (immunofluorescence, FIG. 5) (N2B27+KSR+5 μM compound) | also measured |
| --- | --- | --- |
| C=C[C@@]1(C)CC(=O)[C@]2(O)[C@@]3(C)[C@@H](O)CCC(C)(C)[C@@H]3[C@H](O)[C@H](OC(C)=O)[C@@]2(C)O1 [Forskolin] |  | TUJ1 positive rate of CiNCs (N2B27+KSR+10 μM Forskolin, 48 h after induction): 80% |
| c1ccc2c(-c3cnn4cc(-c5ccc(N6CCNCC6)cc5)cnc34)ccnc2c1 [LDN193189] | expressed neuronal cell marker antigens TUJ1, MAP2 and NeuN |  |
| C[S+]([O-])c1ccc(-c2nc(-c3ccncc3)c(-c3ccc(F)cc3)[nH]2)cc1 (stereo not shown) [SB203580] | expressed neuronal cell marker antigens TUJ1, MAP2 and NeuN |  |
| Nc1ncnc2c1ncn2[C@@H]1O[C@@H]2COP(=O)(O)O[C@H]2[C@H]1O [cAMP, cyclic Adenosine Monophosphate] |  | Expression of neuronal cell marker antigens TUJ1, MAP2 and NeuN (immunofluorescence, FIG. 5) (N2B27+KSR+10 μM compound): expressed neuronal cell marker antigens TUJ1, MAP2 and NeuN |
